Numbered stars: 1 amine (or outer) side, 2 acyl side, 3 side chain; on linkers, the order of the positions; unused ones are H or OH. Bridge positions count the residues as written; N and C are the ends. Square brackets hold non-standard residues; d marks the D form. Peptide text beside a SMILES is read from it. * marks the point of attachment. ξ: configuration not given here. Phe(3-CF3) = N[C@@H](Cc1cccc(C(F)(F)F)c1)C(=O)O; Ala(morpholin-4-yl) = N[C@@H](CN1CCOCC1)C(=O)O; Phe(4-COOH) = N[C@@H](Cc1ccc(C(=O)O)cc1)C(=O)O; Bip = N[C@@H](Cc1ccc(-c2ccccc2)cc1)C(=O)O; NH(CH2)14COOH = O=C(O)CCCCCCCCCCCCCCN*; Phe(3-Me) = Cc1cccc(C[C@H](N)C(=O)O)c1; Val(3-OH) = CC(C)(O)[C@H](N)C(=O)O; X12 = CC(N)[C@H](N[*:1])C(=O)[*:2]; Val(3-F) = CC(C)(F)[C@H](N)C(=O)O; Cha = N[C@@H](CC1CCCCC1)C(=O)O; Cit = NC(=O)NCCC[C@H](N)C(=O)O; Gly(cPr) = N[C@H](C(=O)O)C1CC1; Ile(3ξ) = CCC(C)[C@H](N)C(=O)O; Thr(3ξ) = CC(O)[C@H](N)C(=O)O; PEG4 = NCCOCCOCCOCCOCCC(=O)O; Carboxymethyl = O=C(O)C*; Orn = NCCC[C@H](N)C(=O)O; Aun = NCCCCCCCCCCC(=O)O; Dab = NCC[C@H](N)C(=O)O; Abu = CC[C@H](N)C(=O)O; Dap = NC[C@H](N)C(=O)O; AEEA = NCCOCCOCC(=O)O
Target: T1, PD-1/PD-L1 interaction (PE-labeled human PD-L1-Ig binding to Jurkat cell line over-expressing human PD-1) (Homo sapiens, UniProt Q15116)
T1 construct: expressed in transfected cells; host or cells: Jurkat
T1 sequence (Q15116 25-288): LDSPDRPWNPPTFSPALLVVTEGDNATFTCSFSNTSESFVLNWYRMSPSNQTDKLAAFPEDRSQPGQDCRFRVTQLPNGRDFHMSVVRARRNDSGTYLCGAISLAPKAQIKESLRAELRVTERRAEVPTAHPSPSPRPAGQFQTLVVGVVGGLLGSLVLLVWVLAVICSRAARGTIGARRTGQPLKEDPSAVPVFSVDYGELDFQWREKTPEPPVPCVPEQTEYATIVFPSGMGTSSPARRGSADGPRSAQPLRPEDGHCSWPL
Assay: Jurkat-PD-1 Cell Binding High-Content Screening Assay (CBA)
Assay type: cell-based
Conditions: Jurkat cell line over-expressing human PD-1; PE-labeled PD-L1-Ig 20 nM final; read-out: Jurkat hPD1-PDL1 IC50
Summary of the method: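 Jurkat-hPD-1 cells, DMEM/10% FCS; cpd 2 h 37° C; PE-PD-L1-Ig 20 nM final, 1 h; 4% PFA fix + Hoechst 33342, 3× dPBS wash; high-content imaging read-out.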

Row | SMILES | IC50 [µM]
1 | Cc1cccc(C[C@@H]2NC(=O)[C@H](CC(=O)O)NC(=O)[C@H](Cc3ccc(OCC(=O)O)cc3)NC(=O)[C@H](CCCNC(=N)N)NC(=O)CSC[C@@H](C(=O)N[C@@H](CCN)C(=O)NCCCCCCCCCCC(=O)O)NC(=O)[C@H]([C@@H](C)O)NC(=O)[C@H](C(C)C)NC(=O)[C@H](CC3CCCCC3)NC(=O)[C@H](CCN)NC(=O)[C@@H](CC(C)C)NC(=O)[C@H](CCCN)NC(=O)[C@H](Cc3ccc(OCC(=O)O)cc3)NC(=O)[C@H](Cc3ccc(-c4ccccc4)cc3)NC(=O)[C@H](C(C)(C)F)NC2=O)c1 [Compound 2123] ({CH2CO}-RY(Carboxymethyl)D[Phe(3-Me)][Val(3-F)][Bip]Y(Carboxymethyl)[Orn][dL][Dab][Cha]VTC[Dab][Aun]-OH; thioether N-14) | 0.0141
2 | Cc1cccc(C[C@@H]2NC(=O)[C@H](CC(=O)O)NC(=O)[C@H](Cc3ccc(OCC(=O)O)cc3)NC(=O)[C@H](C(C)N)NC(=O)CSC[C@@H](C(=O)N[C@@H](CCN)C(=O)NCCCCCCCCCCC(=O)O)NC(=O)[C@H](CCC(N)=O)NC(=O)[C@H](C(C)O)NC(=O)[C@H](CC3CCCCC3)NC(=O)[C@H](CCN)NC(=O)[C@@H](CC(C)C)NC(=O)[C@H](CCCN)NC(=O)[C@H](Cc3ccc(OCC(=O)O)cc3)NC(=O)[C@H](Cc3ccc(-c4ccccc4)cc3)NC(=O)[C@H](Cc3ccc(OCC(=O)O)cc3)NC2=O)c1 (stereo partly drawn) [Compound 3519] ({CH2CO}-[X12]Y(Carboxymethyl)D[Phe(3-Me)]Y(Carboxymethyl)[Bip]Y(Carboxymethyl)[Orn][dL][Dab][Cha][Thr(3ξ)]QC[Dab][Aun]-OH; thioether N-14) | 0.0104
3 | CC(C)C[C@H]1NC(=O)[C@H](CCCN)NC(=O)[C@H](C(C)C)NC(=O)[C@H](Cc2ccc(-c3ccccc3)cc2)NC(=O)[C@H](C(C)C)NC(=O)[C@H](Cc2c[nH]c3ccccc23)NC(=O)[C@H](CC(=O)O)NC(=O)[C@H](Cc2ccc(OCC(=O)O)cc2)NC(=O)[C@H](CN)NC(=O)CSC[C@@H](C(=O)N[C@@H](CCN)C(=O)NCCCCCCCCCCC(=O)O)NC(=O)[C@H](CCCCN)NC(=O)[C@H](C(C)C)NC(=O)[C@H](CC2CCCCC2)NC(=O)[C@H](CCN)NC1=O [Compound 2557] ({CH2CO}-[Dap]Y(Carboxymethyl)DWV[Bip]V[Orn][dL][Dab][Cha]VKC[Dab][Aun]-OH; thioether N-14) | 0.0121
4 | Cc1cccc(C[C@@H]2NC(=O)[C@H](CC(=O)O)NC(=O)[C@H](Cc3ccc(OCC(=O)O)cc3)NC(=O)[C@H](CCN)NC(=O)CSC[C@@H](C(=O)N[C@@H](CCN)C(=O)NCCCCCCCCCCC(=O)O)NC(=O)[C@H](Cc3cnc[nH]3)NC(=O)[C@H](C(C)O)NC(=O)[C@H](CC3CCCCC3)NC(=O)[C@H](CCN)NC(=O)[C@@H](CC(C)C)NC(=O)[C@H](CCCN)NC(=O)[C@H](Cc3ccc(OCC(=O)O)cc3)NC(=O)[C@H](Cc3ccc(-c4ccccc4)cc3)NC(=O)[C@H](Cc3ccc(OCC(=O)O)cc3)NC2=O)c1 (stereo partly drawn) [Compound 3633] ({CH2CO}-[Dab]Y(Carboxymethyl)D[Phe(3-Me)]Y(Carboxymethyl)[Bip]Y(Carboxymethyl)[Orn][dL][Dab][Cha][Thr(3ξ)]HC[Dab][Aun]-OH; thioether N-14) | 0.0086
5 | CC(C)C[C@H]1NC(=O)[C@H](CCCN)NC(=O)[C@H](CCCNC(N)=O)NC(=O)[C@H](Cc2ccc(-c3ccccc3)cc2)NC(=O)[C@H](C(C)C)NC(=O)[C@H](Cc2c[nH]c3ccccc23)NC(=O)[C@H](CC(=O)O)NC(=O)[C@H](Cc2ccc(OCC(=O)O)cc2)NC(=O)[C@H](C(C)O)NC(=O)CSC[C@@H](C(=O)N[C@H](CCC(N)=O)C(=O)NCCCCCCCCCCC(=O)O)NC(=O)[C@H](C(C)O)NC(=O)[C@H](C(C)C)NC(=O)[C@H](CC2CCCCC2)NC(=O)[C@H](CCN)NC1=O (stereo partly drawn) [Compound 3446] ({CH2CO}-[Thr(3ξ)]Y(Carboxymethyl)DWV[Bip][Cit][Orn][dL][Dab][Cha]V[Thr(3ξ)]C[dQ][Aun]-OH; thioether N-14) | 0.0652
6 | CCC(C)[C@@H]1NC(=O)[C@H](CC2CCCCC2)NC(=O)[C@H](CCN)NC(=O)[C@@H](CC(C)C)NC(=O)[C@H](CCCN)NC(=O)[C@H](C(C)CC)NC(=O)[C@H](Cc2ccc(-c3ccccc3)cc2)NC(=O)[C@H](C(C)CC)NC(=O)[C@H](Cc2c[nH]c3ccccc23)NC(=O)[C@H](CC(=O)O)NC(=O)[C@H](Cc2ccc(OCC(=O)O)cc2)NC(=O)[C@H](C(C)O)NC(=O)CSC[C@@H](C(=O)N[C@H](CC(N)=O)C(=O)NCCOCCOCC(=O)N2CCC[C@@H]2C(=O)NCCCCCCCCCCC(=O)O)NC(=O)[C@H](CO)NC1=O (stereo partly drawn) [Compound 3118] ({CH2CO}-[Thr(3ξ)]Y(Carboxymethyl)DW[Ile(3ξ)][Bip][Ile(3ξ)][Orn][dL][Dab][Cha][Ile(3ξ)]SC[dN][AEEA][dP][Aun]-OH; thioether N-14) | 0.0304

The next lines start with the values.

Row | IC50 [µM] | SMILES
7 | 0.009 | Cc1cccc(C[C@@H]2NC(=O)[C@H](CC(=O)O)NC(=O)[C@H](Cc3ccc(OCC(=O)O)cc3)NC(=O)[C@H](C3CC3)NC(=O)CSC[C@@H](C(=O)N[C@@H](CCN)C(=O)NCCCCCCCCCCC(=O)O)NC(=O)[C@H](CO)NC(=O)[C@H](C(C)(C)O)NC(=O)[C@H](CC3CCCCC3)NC(=O)[C@H](CCN)NC(=O)[C@@H](CC(C)C)NC(=O)[C@H](CCCN)NC(=O)[C@H](Cc3ccc(OCC(=O)O)cc3)NC(=O)[C@H](Cc3ccc(-c4ccccc4)cc3)NC(=O)[C@H](Cc3ccc(OCC(=O)O)cc3)NC2=O)c1 [Compound 2211] ({CH2CO}-[Gly(cPr)]Y(Carboxymethyl)D[Phe(3-Me)]Y(Carboxymethyl)[Bip]Y(Carboxymethyl)[Orn][dL][Dab][Cha][Val(3-OH)]SC[Dab][Aun]-OH; thioether N-14)
8 | 0.369 | CC[C@@H]1NC(=O)CSC[C@@H](C(=O)N[C@@H](CCN)C(=O)NCCCCCCCCCCCCCCC(=O)O)NC(=O)[C@H](Cc2c[nH]cn2)NC(=O)[C@H](C(C)(C)O)NC(=O)[C@H](CC2CCCCC2)NC(=O)[C@H](CCN)NC(=O)[C@@H](CC(C)C)NC(=O)[C@H](CCCN)NC(=O)[C@H](Cc2ccc(C(=O)O)cc2)NC(=O)[C@H](Cc2ccc(-c3ccccc3)cc2)NC(=O)[C@H](Cc2ccc(C(=O)O)cc2)NC(=O)[C@H](Cc2cccc(C(F)(F)F)c2)NC(=O)[C@H](CC(=O)O)NC(=O)[C@H](Cc2ccc(OCC(=O)O)cc2)NC1=O [Compound 2929] ({CH2CO}-[Abu]Y(Carboxymethyl)D[Phe(3-CF3)][Phe(4-COOH)][Bip][Phe(4-COOH)][Orn][dL][Dab][Cha][Val(3-OH)]HC[Dab]-{NH(CH2)14COOH}; thioether N-14)
9 | 0.352 | CC(C)C[C@H]1NC(=O)[C@H](CCCN)NC(=O)[C@H](Cc2ccc(C(=O)O)cc2)NC(=O)[C@H](Cc2ccc(-c3ccccc3)cc2)NC(=O)[C@H](Cc2ccc(C(=O)O)cc2)NC(=O)[C@H](Cc2cccc(C(F)(F)F)c2)NC(=O)[C@H](CC(=O)O)NC(=O)[C@H](Cc2ccc(OCC(=O)O)cc2)NC(=O)[C@H](CN2CCOCC2)NC(=O)CSC[C@@H](C(=O)N[C@@H](CCN)C(=O)NCCOCCOCCOCCOCCC(=O)NCCCCCCCCCCCCCCC(=O)O)NC(=O)[C@H](CC(=O)O)NC(=O)[C@H](C(C)(C)O)NC(=O)[C@H](CC2CCCCC2)NC(=O)[C@H](CCN)NC1=O [Compound 2948] ({CH2CO}-[Ala(morpholin-4-yl)]Y(Carboxymethyl)D[Phe(3-CF3)][Phe(4-COOH)][Bip][Phe(4-COOH)][Orn][dL][Dab][Cha][Val(3-OH)]DC[Dab][PEG4]-{NH(CH2)14COOH}; thioether N-14)

— US20260022142A1, “MACROCYCLIC IMMUNOMODULATORS” (Bristol-Myers Squibb Company, priority 2022, published 2026)
